As a reminder, the IC50 is the concentration needed to halve the response being measured. A lower IC50 goes with inhibition by little substance.

Structures are written as SMILES.

Assay [1] deals with T1, monoacylglycerol lipase (MAGL) (Homo sapiens, UniProt Q99685).
T1 construct: gene MGLL
T1 sequence (Q99685 1-303): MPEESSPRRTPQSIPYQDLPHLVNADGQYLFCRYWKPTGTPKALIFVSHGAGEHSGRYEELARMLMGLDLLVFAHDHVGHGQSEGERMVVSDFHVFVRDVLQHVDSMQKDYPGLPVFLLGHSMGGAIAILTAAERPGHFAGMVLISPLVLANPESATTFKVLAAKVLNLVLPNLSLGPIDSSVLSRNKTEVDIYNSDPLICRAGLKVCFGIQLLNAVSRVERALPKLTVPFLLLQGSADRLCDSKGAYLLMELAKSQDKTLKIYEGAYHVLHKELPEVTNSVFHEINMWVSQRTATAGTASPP
The assay is described as follows: hydrolysis by kit MAGL, arachidonic acid product by HPLC-MS/MS. The assay is classed as biochemical. As to the method: hydrolysis by kit MAGL, arachidonic acid product by HPLC-MS/MS on monoacylglycerol lipase (MAGL) | natural substrate 2-AG, which is hydrolyzed by MAGL to glycerol and AA. AA concentrations were determined using HPLC-MS/MS

Assay [2] has as its target T1, monoacylglycerol lipase (MAGL). In words: modified Cayman MAGL inhibitor kit, 2-AG hydrolysis to arachidonic acid by HPLC-MS/MS. The assay is classed as biochemical.

Take `CCCCC/C=C\C/C=C\C/C=C\C/C=C\CCCC(=O)OC(CO)CO` [2-AG, 2-arachidonoylglycerol]: the “hydrolysis by kit MAGL, arachidonic acid product by HPLC-MS/MS” value in assay [1] was “natural substrate 2-AG, which is hydrolyzed by MAGL to glycerol and AA. AA concentrations were determined using HPLC-MS/MS”. In turn, `C=C1CC/C=C(\C)CC[C@@H]2[C@@H]1CC2(C)C` [BCP, β-Caryophyllene] gave a half-inhibitory concentration (IC50) in assay [2] of 15.8 µM.

These data come from publication PMC10794982, “β-Caryophyllene Inhibits Monoacylglycerol Lipase Activity and Increases 2-Arachidonoyl Glycerol Levels In Vivo: A New Mechanism of Endocannabinoid-Mediated Analgesia?” (Molecular Pharmacology, 2024).
